The test system of series [1] is HT-29. As to the kind of experiment: Antiproliferative activity against human HT-29 cells assessed as inhibition of cell growth after 72 hrs by XTT assay. The settings on record: HT-29, 72 h. The series is classed as functional, cell-based. Background: Tetrazolium assays rely on reduction of a dye to a coloured formazan, in cell work by metabolically active cells.

A short description of series [2]: Inhibition of bovine brain tubulin polymerization incubated for 30 mins by turbidimetric assay. The series is classed as tissue-based, Bos taurus.
Series [3] relates to HeLa. As to the kind of experiment: Antiproliferative activity against human HeLa cells assessed as inhibition of cell growth after 72 hrs by XTT assay. The series is classed as functional, cell-based.
The subject of series [4] is HL-60. As to the kind of experiment: Antiproliferative activity against human HL-60 cells assessed as inhibition of cell growth after 72 hrs by XTT assay. The settings on record: HL-60, 72 h. It is filed as functional, cell-based.
A short description of series [5]: Aqueous solubility of the compound in pH 7.0 phosphate buffer at 2 mg incubated for 72 hrs by shake flask method. It is filed as physicochemical.

The structures appear in SMILES notation. Converted amounts (≈) assume the structure as drawn. Where only a bound is given, the exact number is not on record here.

Regarding `COc1ccc(S(=O)(=O)Nc2cccnc2Nc2ccc(O)cc2)cc1` [ABT-751], the 50% inhibitory concentration (IC50) in series [1] turned out to be 514 nM; in series [2], 4000 nM; in series [3], 388 nM.

For the compound `CSc1cc(C(=O)c2ccc3ccccc3c2)cc(SC)n1`, the IC50 in series [1] was at least 10 nM; in series [4] it was at least 10 nM; in series [2], above 5000 nM; in series [3], at least 10 nM.

Regarding `COc1ccc(/C=C\c2cc(SC)nc(SC)c2)cc1`, the IC50 is at least 10 nM in series [1], at least 10 nM in series [4], 3800 nM in series [2] and at least 10 nM in series [3].

Consider `C=C(c1cccc(N(C)C)c1)c1cc(SC)nc(SC)c1`, for which the IC50 was at least 10 nM in series [1], at least 10 nM in series [4], above 5000 nM in series [2] and at least 10 nM in series [3]. The thermodynamic solubility at 72 h in series [5] was 2.4 µg/mL (≈ 7.58 µM).

In the case of `CCOC(=O)C(O)(c1ccc(OC)cc1)c1cc(Cl)nc(SC)c1` (stereo unspecified), the IC50 was at least 10 nM in series [1], at least 10 nM in series [4], above 5000 nM in series [2] and at least 10 nM in series [3].

Turning to `C=C(c1cc(Cl)nc(SC)c1)c1ccc2c(c1)c(C(N)=O)cn2C`, the IC50 in series [1] is 38 nM; in series [4] it was 44 nM; in series [2], 2300 nM; in series [3] it was 82 nM.

`C=C(c1cc(Cl)nc(SC)c1)c1ccc2c(ccn2C)c1`: the IC50 in series [1] is 511 nM; in series [4], 416 nM; in series [2], 300 nM; in series [3], 176 nM. For the same compound, the thermodynamic solubility at 72 h in series [5] is 12.3 µg/mL (≈ 39.1 µM).

Consider `C=C(c1ccc(OC)cc1)c1cc(Cl)nc(SC)c1`, for which the IC50 in series [1] was 485 nM; in series [4], 464 nM; in series [2], 1500 nM; in series [3], 628 nM. In series [5], the solubility (thermodynamic) at 72 h turned out to be 48.9 µg/mL (≈ 168 µM).

As for `C=C(c1cc(Cl)nc(SC)c1)c1ccc2c(c1)c(C#N)cn2C`, the IC50 was found to be 278 nM in series [1], 74 nM in series [4], 600 nM in series [2] and 158 nM in series [3]. The thermodynamic solubility at 72 h in series [5] stood at 3.2 µg/mL (≈ 9.42 µM).

With `CSc1cc(C(O)c2ccc(N(C)C)cc2)cc(SC)n1` (stereo unspecified), the IC50 in series [1] was at least 10 nM; in series [4], at least 10 nM; in series [2], above 5000 nM; in series [3], at least 10 nM.

As to `C=C(c1cc(SC)nc(SC)c1)c1ccc2c(c1)c(C#N)cn2C`, the IC50 in series [1] worked out at 587 nM; in series [4], 604 nM; in series [2], 400 nM; in series [3], 579 nM. Moreover, in series [5], the solubility (thermodynamic) at 72 h amounted to 46.3 µg/mL (≈ 132 µM).

In the case of `CSc1cc(C(=O)c2ccc3c(c2)c(C=O)cn3C)cc(Cl)n1`, the half-inhibitory concentration (IC50) in series [1] is at least 10 nM; in series [4] it was at least 10 nM; in series [2], above 5000 nM; in series [3], at least 10 nM.

On to `CSc1cc(C(O)c2ccc(N(C)C)nc2)cc(SC)n1` (stereo unspecified), for which the IC50 was at least 10 nM in series [1], at least 10 nM in series [4], above 5000 nM in series [2] and at least 10 nM in series [3].

For `C=C(c1cc(Cl)nc(SC)c1)c1ccc2c(c1)c(C(=O)O)cn2C`, the IC50 in series [1] is at least 10 nM; in series [4], at least 10 nM; in series [2], above 5000 nM; in series [3] it was at least 10 nM.

Regarding `COc1ccc(C(=NO)c2cc(Cl)nc(SC)c2)cc1`, the IC50 is at least 10000 nM in series [1], 613 nM in series [4], 4600 nM in series [2] and 518 nM in series [3]. In series [5], this compound displayed a thermodynamic solubility at 72 h of 41.7 µg/mL (≈ 135 µM).

In the case of `CSc1cc(C(=NO)c2cccc(N(C)C)c2)cc(SC)n1`, the IC50 in series [1] is at least 10 nM; in series [4], at least 10 nM; in series [2], above 5000 nM; in series [3] it was at least 10 nM. For the same compound, in series [5], the solubility (thermodynamic) at 72 h amounted to 14.7 µg/mL (≈ 44.1 µM).

With `CSc1cc(C(=O)c2ccc3c(ccn3C)c2)cc(Cl)n1`, the concentration for half-maximal inhibition (IC50) in series [1] was at least 10 nM; in series [4] it was 490 nM; in series [2], 2400 nM; in series [3], 388 nM.

Turning to `COc1ccc(C(C)c2cc(SC)nc(SC)c2)cc1` (stereo unspecified), the IC50 in series [1] is at least 10000 nM; in series [4], at least 10000 nM; in series [2], above 5000 nM; in series [3], at least 10000 nM.

`CSc1cc(/C=C\c2ccc3c(ccn3C)c2)cc(SC)n1`: the IC50 in series [1] was 633 nM; in series [4], at least 10 nM; in series [2], above 5000 nM; in series [3], at least 10 nM.

`CSc1cc(C(=NO)c2ccc(N(C)C)cc2)cc(SC)n1`: the IC50 came out at 781 nM in series [1], 213 nM in series [4], 2100 nM in series [2] and 269 nM in series [3]. This compound also had a thermodynamic solubility at 72 h in series [5] of 1.1 µg/mL (≈ 3.3 µM).

As to `CSc1cc(C(=NO)c2ccc3c(ccn3C)c2)cc(SC)n1`, the IC50 in series [1] worked out at 745 nM; in series [4], 240 nM; in series [2] it was 1000 nM; in series [3], 590 nM.

On to `COc1ccc(C(=O)c2cc(Cl)nc(SC)c2)cc1`, for which the IC50 in series [1] was at least 10000 nM; in series [4], at least 10000 nM; in series [2], above 5000 nM; in series [3], at least 10000 nM.

Consider `CSc1cc(C(O)c2ccc3c(ccn3C)c2)cc(SC)n1` (stereo unspecified), for which the IC50 in series [1] is at least 10 nM; in series [4], at least 10000 nM; in series [2], above 5000 nM; in series [3], at least 10000 nM.

Regarding `C=C(c1cc(SC)nc(SC)c1)c1ccc2ccccc2c1`, the IC50 in series [1] was at least 10 nM; in series [4], at least 10 nM; in series [2], above 5000 nM; in series [3], at least 10 nM. The compound also gave a thermodynamic solubility at 72 h in series [5] of 1.9 µg/mL (≈ 5.87 µM).

As for `C=C(c1cc(SC)nc(SC)c1)c1ccc2c(ccn2C)c1`, the IC50 in series [1] was determined as 249 nM; in series [4] it was 717 nM; in series [2] it was 1100 nM; in series [3], 520 nM.

As to `CSc1cc(C(=NO)c2ccc3c(ccn3C)c2)cc(Cl)n1`, the IC50 in series [1] was at least 10 nM; in series [4], 257 nM; in series [2], above 5000 nM; in series [3], 365 nM. This compound also returned a thermodynamic solubility at 72 h in series [5] of 14.8 µg/mL (≈ 44.6 µM).

As for `C=C(c1ccc(OC)cc1)c1cc(SC)nc(SC)c1`, the IC50 in series [1] worked out at 550 nM; in series [4] it was 306 nM; in series [2] it was 2000 nM; in series [3] it was 399 nM. In series [5], this compound came in with a solubility (thermodynamic) at 72 h of 35.7 µg/mL (≈ 118 µM).

For `C=C(c1cc(SC)nc(SC)c1)c1ccc2c(c1)c(C=O)cn2C`, the IC50 in series [1] was 573 nM; in series [4], 303 nM; in series [2] it was 1200 nM; in series [3], 64 nM. The compound also came in with a solubility (thermodynamic) at 72 h in series [5] of 7.6 µg/mL (≈ 21.4 µM).

For the compound `C=C(c1ccc(N(C)C)cc1)c1cc(SC)nc(SC)c1`, the IC50 in series [1] amounted to 928 nM; in series [4], 486 nM; in series [2], 3800 nM; in series [3], 328 nM. In addition, the solubility (thermodynamic) at 72 h in series [5] amounted to 6.9 µg/mL (≈ 21.8 µM).

With `CSc1cc(C(=NO)c2ccc3ccccc3c2)cc(SC)n1`, the IC50 in series [1] is at least 10 nM; in series [4] it was at least 10 nM; in series [2] it was above 5000 nM; in series [3], at least 10 nM.

On to `C=C(c1cc(SC)nc(SC)c1)c1ccc2c(c1)c(C(=O)O)cn2C`, for which the concentration for half-maximal inhibition (IC50) is at least 10 nM in series [1], at least 10 nM in series [4], 4700 nM in series [2] and at least 10 nM in series [3]. The same compound displayed a thermodynamic solubility at 72 h in series [5] of 103 µg/mL (≈ 277 µM).

Consider `CSc1cc(C(=O)c2cccc(N(C)C)c2)cc(SC)n1`, for which the IC50 in series [1] is at least 10 nM; in series [4], at least 10 nM; in series [2] it was above 5000 nM; in series [3], at least 10 nM. The compound further yielded a thermodynamic solubility at 72 h in series [5] of 1.3 µg/mL (≈ 4.08 µM).

As for `CSc1cc(C(=O)c2ccc3c(ccn3C)c2)cc(SC)n1`, the IC50 in series [1] is 549 nM; in series [4] it was 222 nM; in series [2], 1700 nM; in series [3], 233 nM.

On to `C=C(c1cc(SC)nc(SC)c1)c1ccc2c(c1)c(C(N)=O)cn2C`, for which the IC50 is 276 nM in series [1], 223 nM in series [4], 2400 nM in series [2] and 601 nM in series [3].

As for `COc1ccc(C(=NO)c2cc(SC)nc(SC)c2)cc1`, the IC50 was 292 nM in series [1], 299 nM in series [4], 3000 nM in series [2] and 457 nM in series [3].

Regarding `COc1ccc(C(=O)c2cc(SC)nc(SC)c2)cc1`, the IC50 in series [1] is at least 10000 nM; in series [4], at least 10000 nM; in series [2], above 5000 nM; in series [3], at least 10000 nM. This compound also showed a solubility (thermodynamic) at 72 h in series [5] of 1.5 µg/mL (≈ 4.91 µM).

For the compound `CSc1cc(C(=O)c2ccc3c(c2)c(C=O)cn3C)cc(SC)n1`, the IC50 in series [1] was at least 10 nM; in series [4], at least 10 nM; in series [2] it was above 5000 nM; in series [3] it was at least 10 nM. For the same compound, the solubility (thermodynamic) at 72 h in series [5] came to 230 µg/mL (≈ 646 µM).

`CSc1cc(C(=O)c2ccc(N(C)C)nc2)cc(SC)n1`: the IC50 in series [1] is at least 10 nM; in series [4], at least 10 nM; in series [2] it was above 5000 nM; in series [3] it was at least 10 nM. This compound also registered a thermodynamic solubility at 72 h in series [5] of 47.1 µg/mL (≈ 147 µM).

On to `CSc1cc(C(=O)c2ccc(N(C)C)cc2)cc(SC)n1`, for which the IC50 was 787 nM in series [1], 435 nM in series [4], above 5000 nM in series [2] and 652 nM in series [3]. In series [5], the thermodynamic solubility at 72 h was found to be 1 µg/mL (≈ 3.14 µM).

With `COc1ccc(/C=C\c2cc(OC)c(OC)c(OC)c2)cc1O` [COMBRETASTATIN A4], the values for the IC50 in series [1] and in series [2] were 305 nM and 2800 nM, respectively.

Usually IC50 stands for the concentration that inhibits the measured activity by half. As a reminder, the thermodynamic solubility is the concentration in solution at equilibrium with solid.

For the origin of these results see ChEMBL document CHEMBL4732128, “Methylsulfanylpyridine based diheteroaryl isocombretastatin analogs as potent anti-proliferative agents” (Eur J Med Chem, 2021).
